{"source": "paper PMC4735555", "about": "“Crystal structure of the N-myristoylated lipopeptide-bound MHC class I complex” (Nature Communications, 2016)", "key": {"[1]": {"system": "2N5.1 (plate-coated Mamu-B*098)", "experiment": "T-cell assay with plate-coated Mamu-B*098, IFN-γ release by 2N5.1", "format": "cell-based, rhesus macaque", "details": "10 μg MHC protein, 1 μg lipopeptide loaded overnight 37 °C; 5 × 10^4 T cells per well, 24 h; IFN-γ ELISA", "excerpt": "Single-chain MHC proteins in which β2m was linked via a Gly-Ser linker (GGGGSGGSGSGGGSS) to the ectodomain of either Mamu-B*098 or Mamu-A*02, followed by a biotinylation sequence peptide (LHHILDAQKMVWNHR), were also expressed in E. coli and were purified in a similar manner to the trimer complex of Mamu-B*098, β2m and C14nef5. The β2m-linked Mamu-B*098 protein was refolded without C14nef5, whereas the β2m-linked Mamu-A*02 protein was refolded in the presence of the YY9 peptide (YTSGPGIRY). These recombinant proteins (3 mg) were biotinylated by being incubated for 12 h at 20 °C with 2 μg of BirA enzyme (Sigma-Aldrich, St Louis, MO) in a biotinylation buffer containing 100 mM Tris-HCl pH 8.0, 5 mM MgCl2, 4.5 mM ATP and 4 mM D-biotin, and were purified by size-exclusion chromatography.\nStreptavidin-coated 96-well plates (Thermo Scientific, Hudson, NH) were overlaid with 10 μg of the biotinylated β2m-linked Mamu-B*098 and Mamu-A*02 proteins, and lipopeptide Ags (1 μg) were loaded by an overnight incubation at 37 °C. The wells were then washed extensively and T cells (5 × 10^4 per well) were added. After a 24-h incubation at 37 °C, aliquots of the culture supernatants were collected and the amount of IFN-γ released into the medium was measured by a human/monkey IFN-γ enzyme-linked immunosorbent assay kit (Mabtech, Nacka Strand, Sweden)."}, "Mamu-B*098": {"system": "Mamu-B*098", "experiment": "X-ray crystal structure of the Mamu-B*098:C14nef5 complex", "format": "binding, rhesus macaque", "details": "crystal structure at 1.76 Å, Mamu-B*098 with Cys167 mutated to Ser, rhesus β2m; PDB 4ZFZ", "protocol": "Recombinant proteins were prepared as described previously with some modifications. Briefly, DNA constructs encoding the ectodomain of Mamu-B*098 (from Gly1 to Pro276 with the unpaired Cys167 mutated to Ser and a Met-Ala added to the N terminus) and rhesus β2m (from Ile1 to Met99 with a Met-Ala added to the N terminus) were synthesized and cloned into pLM1. The expression plasmids were introduced into the E. coli Rosetta 2 (DE3) pLysS strain (Novagen, Madison, WI) and colonies were inoculated into a Terrific Broth supplemented with 50 μg ml^−1 ampicillin. Isopropyl-β-D-thiogalactoside was added to the culture at a final concentration of 0.5 mM when the OD600 value of the culture reached 0.5. After an additional 6-h culture, bacteria were harvested and lysed in a buffer containing 50 mM Tris-HCl pH 8.0, 1 mM EDTA, 0.1% NaN3, 10 mM dithiothreitol (DTT), 100 mM NaCl, 1% Triton X-100, 1% deoxycholate and 5 mM MgCl2, followed by a treatment with DNase I. After 6 h of stirring, the samples were centrifuged and the pellets were washed twice with a wash buffer containing 50 mM Tris-HCl pH 8.0, 1 mM EDTA, 0.1% NaN3, 1 mM DTT, 100 mM NaCl and 0.5% Triton X-100, and once with a rinse buffer containing 50 mM Tris-HCl pH 8.0, 1 mM EDTA, 0.1% NaN3 and 1 mM DTT. […]"}, "2N5.1": {"system": "2N5.1", "details": "cited from earlier work", "excerpt": "For example, human and simian immunodeficiency viruses (HIV and SIV) borrow host-derived N-myristoyltransferase and its substrate myristoyl-CoA, to couple a 14-carbon saturated fatty acid (myristic acid) to the N-terminal glycine residue of the Nef protein. […] To obtain an insight into its molecular identity, we generated several hundred monoclonal antibodies that recognized rhesus PBMCs and tested their abilities to block the presentation of C14nef5 to 2N5.1. […] The myristoyl group of the lipopeptide adopted a U-shaped configuration and fit perfectly with the extended B pocket. Furthermore, inter- and intramolecular VDW forces established throughout the acyl chain synergistically reinforced its stable binding to the B pocket. These structural f ... || (+ 1 further places)"}}, "data": [{"substance": "C14-Gly-Gly-Ala-Ile-Ser [C14nef5, N-myristoylated 5-mer peptide (C14-Gly-Gly-Ala-Ile-Ser; C14nef5) derived from the SIV Nef protein]", "values": [{"measurement": "IFN-γ response of 2N5.1 to plate-coated Mamu-B*098 with lipopeptide Ag", "setting": "[1]", "result": "sufficient for stimulating 2N5.1 to produce IFN-γ"}, {"measurement": "electron density in the Ag-binding groove of Mamu-B*098", "setting": "Mamu-B*098", "result": "Continuous electron density corresponding to C14nef5 was observed in the Ag-binding groove"}, {"measurement": "antigenic activity, C14nef5 versus its Ser to Thr mutant", "setting": "2N5.1", "result": "virtually identical antigenic activities"}, {"measurement": "recognition by rhesus macaque CD8+ CTL line 2N5.1", "setting": "2N5.1", "result": "specifically recognizes"}, {"measurement": "requirement of PBMCs for recognition by 2N5.1", "setting": "2N5.1; irradiated PBMCs", "result": "requires the presence of irradiated peripheral blood mononuclear cells (PBMCs)"}]}]}
